Source: ChEMBL document CHEMBL3885861, “Open TG-GATES”

Species: Rattus norvegicus
Assay: Open TG-GATES - Regimen: Single
Assay type: toxicity, organism-based, Sprague-Dawley
Design: regimen Single, gender Male, age 6 weeks
Settings: in vivo, po, route gavage; for APTT / Bas / Eos / Fbg / Hb / Ht / Lym / MCH / MCHC / MCV / Mono / Neu / PT / Plat / RBC / Ret / WBC: tissue Blood; for KIDNEY_L / KIDNEY_R / KIDNEY_TOTAL: tissue Kidney; for LIVER: tissue Liver; for A/G / ALP / ALT / AST / BUN / CRE / Ca / Cl / DBIL / GLC / IP / K / LDH / Na / PL / RALB / TBIL / TC / TG / TP / gamma-GTP: tissue Plasma
[1] = 120 mg/kg, 3 h, dose level Middle
[2] = 120 mg/kg, 6 h, dose level Middle
[3] = 120 mg/kg, 9 h, dose level Middle
[4] = 120 mg/kg, 24 h, dose level Middle
[5] = 400 mg/kg, 3 h, dose level High
[6] = 400 mg/kg, 6 h, dose level High
[7] = 400 mg/kg, 9 h, dose level High
[8] = 400 mg/kg, 24 h, dose level High

## Cc1cccc(C)c1OCC(C)N (centres undefined) [MEXILETINE]
[1]
  TERMINAL_BW: 218.1 g
  APTT: 21.8 s
  Bas: 0%
  Eos: 0.4%
  Fbg: 310.2 mg/dL
  Hb: 13.1 g/dL
  Ht: 40.6%
  Lym: 83.2%
  MCH: 20.1 pg
  MCHC: 32.2%
  MCV: 62.6 fL
  Mono: 2%
  Neu: 13.6%
  PT: 15.9 s
  Plat: 113.4 x10_4/uL
  RBC: 648.8 x10_4/ul
  Ret: 7.3%
  WBC: 96 x10_2/uL
  KIDNEY_L: 1 g
  KIDNEY_R: 1 g
  KIDNEY_TOTAL: 1.9 g
  LIVER: 10.1 g
  A/G: 1.3
  ALP: 1543.6 IU/L
  ALT: 54.4 IU/L
  AST: 78.4 IU/L
  BUN: 12.8 mg/dL
  CRE: 0.2 mg/dL
  Ca: 10.5 mg/dL
  Cl: 106.4 meq/L
  DBIL: 0 mg/dL
  GLC: 182.6 mg/dL
  IP: 9.4 mg/dL
  K: 4.4 meq/L
  LDH: 175.2 IU/L
  Na: 141.6 meq/L
  PL: 135 mg/dL
  RALB: 3.1 g/dL
  TBIL: 0.018 mg/dL
  TC: 77.2 mg/dL
  TG: 61.8 mg/dL
  TP: 5.5 g/dL
  gamma-GTP: 1.2 IU/L
[2]
  TERMINAL_BW: 209 g
  APTT: 21.2 s
  Bas: 0%
  Eos: 0.8%
  Fbg: 318.6 mg/dL
  Hb: 13.2 g/dL
  Ht: 40.5%
  Lym: 77.4%
  MCH: 20.4 pg
  MCHC: 32.6%
  MCV: 62.6 fL
  Mono: 2.4%
  Neu: 19%
  PT: 16.1 s
  Plat: 120.4 x10_4/uL
  RBC: 647 x10_4/ul
  Ret: 6.8%
  WBC: 69.3 x10_2/uL
  KIDNEY_L: 0.9 g
  KIDNEY_R: 0.9 g
  KIDNEY_TOTAL: 1.9 g
  LIVER: 9 g
  A/G: 1.2
  ALP: 1633.4 IU/L
  ALT: 43.8 IU/L
  AST: 73.4 IU/L
  BUN: 9.8 mg/dL
  CRE: 0.2 mg/dL
  Ca: 10.6 mg/dL
  Cl: 107.4 meq/L
  DBIL: 0 mg/dL
  GLC: 184.6 mg/dL
  IP: 8.6 mg/dL
  K: 4.1 meq/L
  LDH: 179.2 IU/L
  Na: 142 meq/L
  PL: 124.6 mg/dL
  RALB: 3.1 g/dL
  TBIL: 0.03 mg/dL
  TC: 68.6 mg/dL
  TG: 48.6 mg/dL
  TP: 5.7 g/dL
  gamma-GTP: 1.2 IU/L
[3]
  TERMINAL_BW: 219.2 g
  APTT: 22.9 s
  Bas: 0%
  Eos: 1%
  Fbg: 318.6 mg/dL
  Hb: 12.6 g/dL
  Ht: 39%
  Lym: 78.6%
  MCH: 20.2 pg
  MCHC: 32.3%
  MCV: 62.6 fL
  Mono: 2.4%
  Neu: 17.2%
  PT: 16.3 s
  Plat: 120 x10_4/uL
  RBC: 624 x10_4/ul
  Ret: 7.2%
  WBC: 97.2 x10_2/uL
  KIDNEY_L: 1 g
  KIDNEY_R: 1 g
  KIDNEY_TOTAL: 2 g
  LIVER: 9.5 g
  A/G: 1.2
  ALP: 1531 IU/L
  ALT: 44.6 IU/L
  AST: 71.8 IU/L
  BUN: 10.6 mg/dL
  CRE: 0.2 mg/dL
  Ca: 10.6 mg/dL
  Cl: 104.6 meq/L
  DBIL: 0 mg/dL
  GLC: 188.4 mg/dL
  IP: 9 mg/dL
  K: 4.3 meq/L
  LDH: 143.8 IU/L
  Na: 140.2 meq/L
  PL: 130.4 mg/dL
  RALB: 3 g/dL
  TBIL: 0.02 mg/dL
  TC: 74 mg/dL
  TG: 66.8 mg/dL
  TP: 5.4 g/dL
  gamma-GTP: 1.2 IU/L
[4]
  TERMINAL_BW: 231.4 g
  APTT: 19.9 s
  Bas: 0%
  Eos: 0.8%
  Fbg: 293.8 mg/dL
  Hb: 12.8 g/dL
  Ht: 39.5%
  Lym: 81%
  MCH: 20.6 pg
  MCHC: 32.3%
  MCV: 63.8 fL
  Mono: 2.4%
  Neu: 15.2%
  PT: 15.9 s
  Plat: 117.4 x10_4/uL
  RBC: 619.8 x10_4/ul
  Ret: 7.6%
  WBC: 86.1 x10_2/uL
  KIDNEY_L: 1 g
  KIDNEY_R: 1 g
  KIDNEY_TOTAL: 2 g
  LIVER: 10.8 g
  A/G: 1.3
  ALP: 1779.4 IU/L
  ALT: 50 IU/L
  AST: 75 IU/L
  BUN: 17.2 mg/dL
  CRE: 0.2 mg/dL
  Ca: 10.7 mg/dL
  Cl: 106.2 meq/L
  DBIL: 0 mg/dL
  GLC: 188.6 mg/dL
  IP: 7.6 mg/dL
  K: 4.2 meq/L
  LDH: 205 IU/L
  Na: 141.4 meq/L
  PL: 148.4 mg/dL
  RALB: 3.1 g/dL
  TBIL: 0.008 mg/dL
  TC: 74.2 mg/dL
  TG: 150.8 mg/dL
  TP: 5.6 g/dL
  gamma-GTP: 1.6 IU/L
[5]
  TERMINAL_BW: 221.2 g
  APTT: 21.7 s
  Bas: 0%
  Eos: 1%
  Fbg: 292.2 mg/dL
  Hb: 12.9 g/dL
  Ht: 39.9%
  Lym: 75.8%
  MCH: 20.5 pg
  MCHC: 32.4%
  MCV: 63.2 fL
  Mono: 2.4%
  Neu: 20.6%
  PT: 16.5 s
  Plat: 108.6 x10_4/uL
  RBC: 632.4 x10_4/ul
  Ret: 7.4%
  WBC: 62.3 x10_2/uL
  KIDNEY_L: 1 g
  KIDNEY_R: 1.1 g
  KIDNEY_TOTAL: 2.1 g
  LIVER: 9.9 g
  A/G: 1.3
  ALP: 1366.2 IU/L
  ALT: 58.8 IU/L
  AST: 87.6 IU/L
  BUN: 12.2 mg/dL
  CRE: 0.1 mg/dL
  Ca: 10.4 mg/dL
  Cl: 106 meq/L
  DBIL: 0 mg/dL
  GLC: 174.4 mg/dL
  IP: 9.6 mg/dL
  K: 4 meq/L
  LDH: 168 IU/L
  Na: 141 meq/L
  PL: 122.6 mg/dL
  RALB: 3 g/dL
  TBIL: 0.028 mg/dL
  TC: 72.6 mg/dL
  TG: 46 mg/dL
  TP: 5.4 g/dL
  gamma-GTP: 1 IU/L
[6]
  TERMINAL_BW: 214.8 g
  APTT: 21.8 s
  Bas: 0%
  Eos: 0.6%
  Fbg: 411.6 mg/dL
  Hb: 13.6 g/dL
  Ht: 42.2%
  Lym: 71.2%
  MCH: 20.7 pg
  MCHC: 32.4%
  MCV: 64 fL
  Mono: 2%
  Neu: 25%
  PT: 16.1 s
  Plat: 109.7 x10_4/uL
  RBC: 660.2 x10_4/ul
  Ret: 7.1%
  WBC: 71.5 x10_2/uL
  KIDNEY_L: 0.9 g
  KIDNEY_R: 0.9 g
  KIDNEY_TOTAL: 1.9 g
  LIVER: 9.6 g
  A/G: 1.2
  ALP: 1714.4 IU/L
  ALT: 52 IU/L
  AST: 84.2 IU/L
  BUN: 10.2 mg/dL
  CRE: 0.2 mg/dL
  Ca: 10.3 mg/dL
  Cl: 107.2 meq/L
  DBIL: 0 mg/dL
  GLC: 186.8 mg/dL
  IP: 8.5 mg/dL
  K: 4.2 meq/L
  LDH: 190.4 IU/L
  Na: 141.8 meq/L
  PL: 133.2 mg/dL
  RALB: 3 g/dL
  TBIL: 0.02 mg/dL
  TC: 80.4 mg/dL
  TG: 34.8 mg/dL
  TP: 5.7 g/dL
  gamma-GTP: 1.6 IU/L
[7]
  TERMINAL_BW: 217.6 g
  APTT: 23.3 s
  Bas: 0%
  Eos: 0.8%
  Fbg: 309.4 mg/dL
  Hb: 12.7 g/dL
  Ht: 39.4%
  Lym: 72.8%
  MCH: 20.3 pg
  MCHC: 32.2%
  MCV: 63 fL
  Mono: 2.6%
  Neu: 23%
  PT: 16.1 s
  Plat: 109.3 x10_4/uL
  RBC: 626.4 x10_4/ul
  Ret: 7.6%
  WBC: 76 x10_2/uL
  KIDNEY_L: 1 g
  KIDNEY_R: 1 g
  KIDNEY_TOTAL: 2 g
  LIVER: 9.5 g
  A/G: 1.3
  ALP: 1243.2 IU/L
  ALT: 42.8 IU/L
  AST: 65 IU/L
  BUN: 8.6 mg/dL
  CRE: 0.1 mg/dL
  Ca: 10.3 mg/dL
  Cl: 107.2 meq/L
  DBIL: 0 mg/dL
  GLC: 186 mg/dL
  IP: 9.1 mg/dL
  K: 4.2 meq/L
  LDH: 146.4 IU/L
  Na: 141.4 meq/L
  PL: 144.8 mg/dL
  RALB: 3 g/dL
  TBIL: 0.026 mg/dL
  TC: 81.4 mg/dL
  TG: 45.4 mg/dL
  TP: 5.4 g/dL
  gamma-GTP: 1.4 IU/L
[8]
  TERMINAL_BW: 225.6 g
  APTT: 20.4 s
  Bas: 0%
  Eos: 1%
  Fbg: 313.6 mg/dL
  Hb: 13.4 g/dL
  Ht: 41%
  Lym: 80%
  MCH: 20.5 pg
  MCHC: 32.8%
  MCV: 62.5 fL
  Mono: 2.6%
  Neu: 15.6%
  PT: 16.3 s
  Plat: 106 x10_4/uL
  RBC: 656.8 x10_4/ul
  Ret: 7.1%
  WBC: 76.9 x10_2/uL
  KIDNEY_L: 1 g
  KIDNEY_R: 1 g
  KIDNEY_TOTAL: 2 g
  LIVER: 10.5 g
  A/G: 1.2
  ALP: 1526.6 IU/L
  ALT: 50.2 IU/L
  AST: 71.4 IU/L
  BUN: 14.6 mg/dL
  CRE: 0.2 mg/dL
  Ca: 10.6 mg/dL
  Cl: 105 meq/L
  DBIL: 0 mg/dL
  GLC: 182.2 mg/dL
  IP: 8.2 mg/dL
  K: 4.2 meq/L
  LDH: 170.6 IU/L
  Na: 142.6 meq/L
  PL: 163 mg/dL
  RALB: 3.1 g/dL
  TBIL: 0.004 mg/dL
  TC: 89 mg/dL
  TG: 120.2 mg/dL
  TP: 5.6 g/dL
  gamma-GTP: 1.6 IU/L
